{"source": "paper PMC9374667", "about": "(Communications Biology, 2022)", "key": {"[1]": {"tested_on": "db/db mice", "experiment": "Serum CHO, TG, FFA, LDL-C, HDL-C and ADPN in the fasted state", "format": "in vivo", "conditions": "db/db mice; for ADPN (Figure 4j) / FFA (Figure 4g) / HDL-C (Figure 4i) / LDL-C (Figure 4h): serum, individual mice 1-6; for Serum CHO / Serum TG: fasted state, individual mice", "experimental": "The serum was collected by centrifugation at 3000 × g at 4 °C for 15 min and stored at −80 °C until analysis. TG, TC, LDL-C, HDL-C, and FFA were routinely tested on a Chemray 240 automatic biochemical analyzer (Chemray 240, Shenzhen, China). Serum levels of mouse adiponectin, interleukin6 (IL-6), tumor necrosis factor-α (TNF-α) were measured using commercial enzyme-linked immunosorbent assay (ELISA) kits (Nanjing Jiancheng Bioengineering Institute, Nanjing, China) and according to the manufacturer’s instructions. The levels of IL-6, TNF-α in 3T3-L1 adipocyte culture supernatant were also detected by ELISA."}, "[2]": {"tested_on": "db/db mice", "experiment": "HE staining of epididymal adipose tissue, adipocyte size", "format": "in vivo", "conditions": "for Cell diameter (adipocyte size of eWAT): individual cells", "experimental": "The adipose tissue was fixed overnight in 4% paraformaldehyde, then embedded in paraffin and cut into 5 µm thick slices. Tissue sections were stained with hematoxylin and eosin (H&E). For immunohistochemistry, sections were incubated with primary antibodies against F4/80 (1:100 dilution) diluted in the blocking solution at 4 °C overnight. The tissue sections were then incubated with the horseradish peroxidase (HRP)-conjugated secondary antibody at room temperature for 2 h. Finally, the sections were developed with diaminobenzidine (DAB) and counterstained with hematoxylin. Images were obtained under a microscope. To quantify the F4/80-positive macrophages, two random fields per sample were analyzed by Image J software. The IHC profiler plugin of ImageJ was used to calculate the F4/80 positive area."}, "[3]": {"experiment": "In vitro dissolution studies: dynamic solubility in buffers and simulated biological fluids", "format": "physicochemical", "conditions": "CMC-Na, mean", "experimental": "Solubilities were determined by adding excess sample to 30 mL different mediums, such as HCl solution, acetate buffer, phosphate buffer, SGF, FaSSIF and FeSSIF. The configuration of various buffer solutions is shown in Supplementary Table 2. After being shaken at 400 rpm at 37 °C for 0.5, 1, 2, and 24 h, 0.3 mL of suspension was sampled and centrifuged at 14,000 rpm for 8 min to isolate mother liquor, and then analyzed by HPLC after dilution. All samples were analyzed in triplicate."}, "[4]": {"experiment": "pH of the solution after 24 hours of the dissolution test", "format": "physicochemical", "experimental": "Solubilities were determined by adding excess sample to 30 mL different mediums, such as HCl solution, acetate buffer, phosphate buffer, SGF, FaSSIF and FeSSIF. The configuration of various buffer solutions is shown in Supplementary Table 2. After being shaken at 400 rpm at 37 °C for 0.5, 1, 2, and 24 h, 0.3 mL of suspension was sampled and centrifuged at 14,000 rpm for 8 min to isolate mother liquor, and then analyzed by HPLC after dilution. All samples were analyzed in triplicate. […]\ninto a 1000 mL flask followed by addition of about 800 mL of deionized water. The mixture is stirred until all solids are dissolved.\nAdd about 100 mL of 0.1 N HCl, check pH value with a pH meter and adjust the pH to 2.0 with HCl (1 N) or NaOH (1 N). Then dilute to the volume with deionized water.\n* 1N sodium hydroxide: Weigh 8 g NaOH in a 200 mL plastic volumetric flask, add deionized water to volume and mix well. […]\nphosphate and 3.093 g sodium chloride in a 500 mL volumetric flask, add about 0.450 L deionized water, and adjust the pH to 6.5 with 1N sodium hydroxide or 1 N hydrochloric acid. Make up to volume (0.5 […]\nStep 2: Place and dissolve 1.120 g FaSSIF/FeSSIF/FaSSGF instant powder with 0.250 L of buffer (from step 1) in a 500 mL volumetric flask, then add buffer (from step 1) to volume, and mix well. […]\ng sodium chloride in a 500 mL volumetric flask, add about 0.450 L deionized water, and adjust the pH to 5.0 with 1 N sodium hydroxide or 1 N hydrochloric acid. Make up to volume (500 mL) with\nStep 2: Place and dissolve 5.600 g FaSSIF/FeSSIF/FaSSGF instant […]\n0.750 L deionized water. Make up to volume (1000 mL) with deionized water and placed overnight.\n(1 picture or pasted object on this page, not shown here)"}, "[5]": {"tested_on": "db/db mice", "experiment": "Glucose tolerance test (GTT)", "format": "in vivo", "conditions": "for blood glucose level, mean: mean of 10 mice"}, "[6]": {"tested_on": "db/db mice", "experiment": "Fasting serum insulin levels (ELISA)", "format": "in vivo", "conditions": "db/db mice; for insulin level (Figure 5b): fasting serum, individual mice 1-6; for Fasting serum insulin levels: 35 days of treatment, vs vehicle", "experimental": "Mice were fasted for 4 h for insulin resistance test and intraperitoneally injected with 1 unit/kg of insulin. Blood glucose levels were measured from the tail vein blood at 0, 15, 30, 45, 60, 90, and 120 min after injection. Plasma insulin levels were measured using an ultrasensitive mouse insulin ELISA kit (Nanjing Jiancheng Bioengineering Institute, Nanjing, China)."}, "[7]": {"conditions": "vs vehicle, BJ 75 and 150 mg/kg, BBR 150 mg/kg, Ibu 150 mg/kg"}}, "note": "Values joined by “and” are separate entries in the source; they are usually repeats but may differ in a detail not shown here. Equal entries are not always repeated."}
{"smiles": "CC(C)Cc1ccc(C(C)C(=O)[O-])cc1.COc1ccc2cc3[n+](cc2c1OC)CCc1cc2c(cc1-3)OCO2.O.O.O.O", "note": "[BJ, berberine-ibuprofen]", "values": [{"measurement": "ADPN (Figure 4j)", "setting": "[1]; BJ 75mg/kg", "value": "460 and 566.78 and 483.17 and 443.62 and 491.01 and 609.29"}, {"measurement": "FFA (Figure 4g)", "setting": "[1]; BJ 75mg/kg", "value": "641.9 and 692.8 and 709.3 and 711.6 and 731.5 and 667"}, {"measurement": "HDL-C (Figure 4i)", "setting": "[1]; BJ 75mg/kg", "value": "2.6 and 2.7 and 3.1 and 2.1 and 3 and 2.4"}, {"measurement": "LDL-C (Figure 4h)", "setting": "[1]; BJ 75mg/kg", "value": "4.35 and 5.54 and 4.19 and 5.48 and 5.18 and 4.51"}, {"measurement": "ADPN (Figure 4j)", "setting": "[1]; BJ 150mg/kg", "value": "563.3 and 624.62 and 712.07 and 705.63 and 665.38 and 609.46"}, {"measurement": "FFA (Figure 4g)", "setting": "[1]; BJ 150mg/kg", "value": "697.7 and 666.2 and 614.5 and 627 and 678.9 and 614.6"}, {"measurement": "HDL-C (Figure 4i)", "setting": "[1]; BJ 150mg/kg", "value": "3.5 and 2.9 and 2.4 and 2.8 and 2.7 and 3.1"}, {"measurement": "LDL-C (Figure 4h)", "setting": "[1]; BJ 150mg/kg", "value": "3.35 and 4.57 and 3.32 and 3.26 and 3.43 and 3.59"}, {"measurement": "Serum CHO", "setting": "[1]; 75 mg/kg", "value": "4.2 mmol/L and 4.3 mmol/L and 4.6 mmol/L and 3.4 mmol/L and 6.1 mmol/L and 5.3 mmol/L"}, {"measurement": "Serum TG", "setting": "[1]; 75 mg/kg", "value": "0.92 mmol/L and 1.17 mmol/L and 1.79 mmol/L and 1.19 mmol/L and 1.62 mmol/L and 1.33 mmol/L"}, {"measurement": "Serum CHO", "setting": "[1]; 150 mg/kg", "value": "3.2 mmol/L and 4.9 mmol/L and 4.5 mmol/L and 4.2 mmol/L and 3.7 mmol/L and 4.6 mmol/L"}, {"measurement": "Serum TG", "setting": "[1]; 150 mg/kg", "value": "1.18 mmol/L and 1.01 mmol/L and 1.29 mmol/L and 1.1 mmol/L and 1.5 mmol/L"}, {"measurement": "Serum levels of CHO, TG, FFA and LDL-C", "setting": "[1]; [7]", "value": "decreased"}, {"measurement": "Serum levels of HDL-C and adiponectin (ADPN)", "setting": "[1]; [7]", "value": "increased"}, {"measurement": "Cell diameter (adipocyte size of eWAT)", "setting": "[2]; 75 mg/kg", "value": "121.031 µm and 117.863 µm and 116.509 µm and 116.462 µm and 115.083 µm and 111.737 µm and 111.179 µm and 109.716 µm and 106.71 µm and 106.209 µm and 103.54 µm and 98.2043 µm and 95.428 µm and 94.4084 µm and 90.8792 µm and 133.968 µm and 130.976 µm and 129.724 µm and 125.916 µm and 124.05 µm"}, {"measurement": "Cell diameter (adipocyte size of eWAT)", "setting": "[2]; 150 mg/kg", "value": "102.304 µm and 92.1827 µm and 91.4137 µm and 90.3818 µm and 88.4919 µm and 87.3914 µm and 86.5338 µm and 86.4994 µm and 85.9825 µm and 85.1497 µm and 81.6079 µm and 81.6018 µm and 80.5245 µm and 80.4936 µm and 112.756 µm and 110.047 µm and 105.5 µm and 104 µm and 102.927 µm"}, {"measurement": "Size of adipocytes in eWAT compared with vehicle", "setting": "[2]; BJ 75 and 150 mg/kg, BBR 150 mg/kg, Ibu 150 mg/kg", "value": "significantly reduced"}, {"measurement": "BBR dissolved in CMC-Na (Figure S7a)", "setting": "[3]; time 0.5", "value": 0.8321}, {"measurement": "Ibu dissolved in CMC-Na (Figure S7b)", "setting": "[3]; time 0.5", "value": 0.4805}, {"measurement": "BBR dissolved in CMC-Na (Figure S7a)", "setting": "[3]; time 1", "value": 1.458}, {"measurement": "Ibu dissolved in CMC-Na (Figure S7b)", "setting": "[3]; time 1", "value": 0.5844}, {"measurement": "BBR dissolved in CMC-Na (Figure S7a)", "setting": "[3]; time 2", "value": 1.5642}, {"measurement": "Ibu dissolved in CMC-Na (Figure S7b)", "setting": "[3]; time 2", "value": 0.6306}, {"measurement": "BBR dissolved in CMC-Na (Figure S7a)", "setting": "[3]; time 24", "value": 1.6671}, {"measurement": "Ibu dissolved in CMC-Na (Figure S7b)", "setting": "[3]; time 24", "value": 0.6693}, {"measurement": "pH of the solution after 24 hours", "setting": "[4]; Acetate buffer, blank vehicle 4.54", "value": 4.82}, {"measurement": "pH of the solution after 24 hours", "setting": "[4]; CMC-Na, blank vehicle 6.51", "value": 6.70}, {"measurement": "pH of the solution after 24 hours", "setting": "[4]; FaSSIF-v1, blank vehicle 6.51", "value": 5.50}, {"measurement": "pH of the solution after 24 hours", "setting": "[4]; FeSSIF-v1, blank vehicle 5.04", "value": 5.17}, {"measurement": "pH of the solution after 24 hours", "setting": "[4]; HCl solution, blank vehicle 1.08", "value": 1.03}, {"measurement": "pH of the solution after 24 hours", "setting": "[4]; Phosphate buffer, blank vehicle 6.84", "value": 6.90}, {"measurement": "pH of the solution after 24 hours", "setting": "[4]; SGF, blank vehicle 2.03", "value": 5.38}, {"measurement": "blood glucose level, mean", "setting": "[5]; BJ 75mg/kg, time column 1 of 7 (time not printed)", "value": 20.5, "unit": "mmol/L"}, {"measurement": "blood glucose level, mean", "setting": "[5]; BJ 75mg/kg, time column 2 of 7 (time not given)", "value": 26.6, "unit": "mmol/L"}, {"measurement": "blood glucose level, mean", "setting": "[5]; BJ 75mg/kg, time column 3 of 7 (time not given)", "value": 31.4, "unit": "mmol/L"}, {"measurement": "blood glucose level, mean", "setting": "[5]; BJ 75mg/kg, time column 4 of 7 (time not given)", "value": 32, "unit": "mmol/L"}, {"measurement": "blood glucose level, mean", "setting": "[5]; BJ 75mg/kg, time column 5 of 7 (time not given)", "value": 31.2, "unit": "mmol/L"}, {"measurement": "blood glucose level, mean", "setting": "[5]; BJ 75mg/kg, time column 6 of 7 (time not given)", "value": 28.2, "unit": "mmol/L"}, {"measurement": "blood glucose level, mean", "setting": "[5]; BJ 75mg/kg, time column 7 of 7 (time not printed)", "value": 23.2, "unit": "mmol/L"}, {"measurement": "blood glucose level, mean", "setting": "[5]; BJ 150mg/kg, time column 1 of 7 (time not printed)", "value": 12.3, "unit": "mmol/L"}, {"measurement": "blood glucose level, mean", "setting": "[5]; BJ 150mg/kg, time column 2 of 7 (time not given)", "value": 26.4, "unit": "mmol/L"}, {"measurement": "blood glucose level, mean", "setting": "[5]; BJ 150mg/kg, time column 3 of 7 (time not given)", "value": 27.7, "unit": "mmol/L"}, {"measurement": "blood glucose level, mean", "setting": "[5]; BJ 150mg/kg, time column 4 of 7 (time not given)", "value": 24.1, "unit": "mmol/L"}, {"measurement": "blood glucose level, mean", "setting": "[5]; BJ 150mg/kg, time column 5 of 7 (time not given)", "value": 21.2, "unit": "mmol/L"}, {"measurement": "blood glucose level, mean", "setting": "[5]; BJ 150mg/kg, time column 6 of 7 (time not given)", "value": 18.4, "unit": "mmol/L"}, {"measurement": "blood glucose level, mean", "setting": "[5]; BJ 150mg/kg, time column 7 of 7 (time not printed)", "value": 15.8, "unit": "mmol/L"}, {"measurement": "Glucose tolerance (GTT)", "setting": "[5]; db/db mice, 150 mg/kg, week 4", "value": "displayed better tolerance to glucose load"}, {"measurement": "insulin level (Figure 5b)", "setting": "[6]; BJ 75mg/kg", "value": "10.1686 and 14.5706 and 11.3611 and 13.6498 and 12.9045 and 14.3689"}, {"measurement": "insulin level (Figure 5b)", "setting": "[6]; BJ 150mg/kg", "value": "10.5413 and 10.778 and 14.6188 and 12.4266 and 11.7294 and 13.6718"}, {"measurement": "Fasting serum insulin levels", "setting": "[6]; 75 mg/kg", "value": "did not produce significant effects"}, {"measurement": "Fasting serum insulin levels", "setting": "[6]; 150 mg/kg", "value": "significantly reduced the fasting serum insulin levels"}]}
